The values that follow come from patent US11572398B2, “GLP-1 derivatives and uses thereof” (Novo Nordisk A/S, priority 2014, dated 2023).

Structures are written as SMILES. Non-standard residues stand in square brackets, D forms with d. Residues, ends and D or L forms follow the SMILES beside them. *: point of attachment. X1 = O=C(O)CCCCCCCCCCCCCCCCCCC(=O)NC[C@H]1CC[C@H](C(=O)N[C@@H](CCC(=O)NCCOCCOCC(=O)NCCOCCOCC(=O)NCCOCCOCC(=O)NCCOCCOCC(=O)NCCOCCOCC(=O)NCCOCCOCC(=O)NCCCN(CCCNC(=O)COCCOCCNC(=O)COCCOCCNC(=O)COCCOCCNC(=O)COCCOCCNC(=O)COCCOCCNC(=O)COCCOCCNC(=O)CC[C@H](NC(=O)[C@H]2CC[C@H](CNC(=O)CCCCCCCCCCCCCCCCCCC(=O)O)CC2)C(=O)O)CC(=O)*)C(=O)O)CC1; Aib = CC(C)(N)C(=O)O

The nature of the data set: Pharmacokinetic study in minipigs (i.v.). To be noted: male, Göttingen, minipig, in vivo, iv, 2 nmol/kg.

As to `CC[C@H](C)[C@H](NC(=O)[C@H](Cc1ccccc1)NC(=O)[C@H](CCC(=O)O)NC(=O)[C@H](CCCNC(=N)N)NC(=O)[C@H](C)NC(=O)[C@H](C)NC(=O)[C@H](CCC(N)=O)NC(=O)[C@H](CCC(=O)O)NC(=O)[C@H](CCC(=O)O)NC(=O)[C@H](CC(C)C)NC(=O)[C@H](Cc1ccc(O)cc1)NC(=O)[C@H](CO)NC(=O)[C@H](CO)NC(=O)[C@@H](NC(=O)[C@H](CC(=O)O)NC(=O)[C@H](CO)NC(=O)[C@@H](NC(=O)[C@H](Cc1ccccc1)NC(=O)[C@@H](NC(=O)CNC(=O)[C@H](CCC(=O)O)NC(=O)C(C)(C)NC(=O)[C@@H](N)Cc1c[nH]cn1)[C@@H](C)O)[C@@H](C)O)C(C)C)C(=O)N[C@@H](C)C(=O)N[C@@H](Cc1c[nH]c2ccccc12)C(=O)N[C@@H](CC(C)C)C(=O)N[C@H](C(=O)N[C@@H](CCCNC(=N)N)C(=O)NCC(=O)N[C@@H](CCCNC(=N)N)C(=O)N1CCC[C@H]1C(=O)N[C@@H](CCCCNC(=O)CN(CCCNC(=O)COCCOCCNC(=O)COCCOCCNC(=O)COCCOCCNC(=O)COCCOCCNC(=O)COCCOCCNC(=O)COCCOCCNC(=O)CC[C@H](NC(=O)[C@H]1CC[C@H](CNC(=O)CCCCCCCCCCCCCCCCCCC(=O)O)CC1)C(=O)O)CCCNC(=O)COCCOCCNC(=O)COCCOCCNC(=O)COCCOCCNC(=O)COCCOCCNC(=O)COCCOCCNC(=O)COCCOCCNC(=O)CC[C@H](NC(=O)[C@H]1CC[C@H](CNC(=O)CCCCCCCCCCCCCCCCCCC(=O)O)CC1)C(=O)O)C(=O)O)C(C)C` [Example 10] (H-H[Aib]EGTFTSDVSSYLEEQAAREFIAWLVRGRPK(X1)-OH; N-terminus and C-terminus assumed), the half-life is 151 h. With `CC[C@H](C)[C@H](NC(=O)[C@H](Cc1ccccc1)NC(=O)[C@H](CCC(=O)O)NC(=O)[C@H](CCCNC(=N)N)NC(=O)[C@H](C)NC(=O)[C@H](C)NC(=O)[C@H](CCC(N)=O)NC(=O)[C@H](CCC(=O)O)NC(=O)[C@H](CCC(=O)O)NC(=O)[C@H](CC(C)C)NC(=O)[C@H](Cc1ccc(O)cc1)NC(=O)[C@H](CO)NC(=O)[C@H](CO)NC(=O)[C@@H](NC(=O)[C@H](CC(=O)O)NC(=O)[C@H](CO)NC(=O)[C@@H](NC(=O)[C@H](Cc1ccccc1)NC(=O)[C@@H](NC(=O)CNC(=O)[C@H](CCC(=O)O)NC(=O)C(C)(C)NC(=O)[C@@H](N)Cc1c[nH]cn1)[C@@H](C)O)[C@@H](C)O)C(C)C)C(=O)N[C@@H](C)C(=O)N[C@@H](Cc1c[nH]c2ccccc12)C(=O)N[C@@H](CC(C)C)C(=O)N[C@H](C(=O)N[C@@H](CCCNC(=N)N)C(=O)NCC(=O)N[C@@H](CCCNC(=N)N)C(=O)N[C@@H](CCCCNC(=O)COCCOCCNC(=O)COCCOCCNC(=O)COCCOCCNC(=O)COCCOCCNC(=O)CN(CCCNC(=O)CC[C@H](NC(=O)[C@H]1CC[C@H](CNC(=O)CCCCCCCCCCCCCCCCCCC(=O)O)CC1)C(=O)O)CCCNC(=O)CC[C@H](NC(=O)[C@H]1CC[C@H](CNC(=O)CCCCCCCCCCCCCCCCCCC(=O)O)CC1)C(=O)O)C(=O)O)C(C)C` [Example 27, N{Epsilon-37}-[2-[2-[2-[[2-[2-[2-[[2-[2-[2-[[2-[2-[2-[[2-[bis[3-[[(4S)-4-carboxy-4-[[4-[(19-carboxynonadecanoylamino)methyl]cyclohexanecarbonyl]amino]butanoyl]amino]propyl]amino]acetyl]amino]ethoxy]ethoxy]acetyl]amino]ethoxy]ethoxy]acetyl]amino]ethoxy]ethoxy]acetyl]amino]ethoxy]ethoxy]acetyl]-[Aib8,Glu22,Arg26,Arg34,Lys37]-GLP-1-(7-37)-peptide] the figure was 138 h.
